Data taken from patent publication US9308244B2, “Combination therapy using active immunotherapy” (immatics Biotechnologies GmbH, priority 2007, dated 2016).
Like-named read-outs stand apart in the source and are kept apart here.

Legend:
C57BL/6 T cells = experiment: Mouse mixed lymphocyte reaction (CFSE-labeled C57BL/6 spleen cells vs irradiated BALB/c splenocytes); type: cell-based; conditions: sorafenib: at concentration near the steady-state plasma level of treated patients
Protocol: CFSE-labeled spleen cells from C57BL/6 (H2-b) mice were co-cultured with irradiated splenocytes from BALB/c (H2-d) mice, resulting in the strong allogenic response and proliferation of the C57BL/6 T cells against H2-d MHC molecules. The proliferation of the T cells results in a diminished CFSE staining of the divided cells. Percentage of divided cells and their number of divisions can be analyzed by flow cytometry.
Spleen cells were prepared from 1 C57BL/6 mouse and 1 BALB/c mouse (Harlan Winkelmann GmbH, Borchen, Germany). BALB/c cells were irradiated with 33 Gy. Effectors (C57BL/6) were adjusted to 20 Mio cells/ml. A 2 mM 5(6)-Carboxyfluorescindiacetate-N-succinimidylester (CFSE, Fluka, Buchs, Switzerland) solution in PBS was freshly prepared from a 10 mM DMSO stock solution. The cell suspension was mixed 1:1 with the CFSE solution. After incubation at 37° C. for 4 min, reaction was stopped by addition of fetal calf serum (Biochrom, Berlin, Germany), and free CFSE was washed out. 2×10^5 stimulator cells (BALB/c) were plated into cavities of a 96-well round-bottom plate. 1×10^5 or 2×10^5 CFSE-labeled effector cells and tyrosine kinase inhibitors at two different concentrations were added. Appropriate positive and negative controls were included. All cultures were in 200 μl T-cell medium with 0.1% (v/v) DMSO for 5 or 7 days without further medium change. Thereafter, cells were stained with fluorescently labelled anti-CD4-PerCP and anti-CD8-FITC antibodies (both BD Biosciences, Heidelberg, Germany) and analyzed by flow cytometry.
The experiment described above was repeated with the exception that a 96-well flat-bottom plate was used for mixed lymphocyte reactions (MLRs), a syngenic control with irradiated C57BL/6 cells was included, more concentrations of inhibitors were assessed, and all groups were analyzed in triplicates.
During cultivation, half of the medium was replaced with fresh appropriate medium supplemented with final concentrations of tyrosine kinase inhibitors every day, and proliferation was analyzed at day 7 only. Additionally cells were stained for H2-Kb to clearly identify effector cells in a further dimension.

[1] = system: OVA-001 specific CD8+ T-cells; type: in vivo, C57BL/6 mice; conditions: continuous treatment, OVA-001 immunized
[2] = system: HLA-A*02+ PBMCs (CD4+ and CD8+ effector cells); conditions: HLA-mismatched target cells, seven days, increasing TKI concentrations
Protocol: Two fresh buffy coat (HLA-A*02+ and HLA-A*02−) were obtained from the Katharinenhospital Stuttgart. PBMCs were isolated by standard density gradient isolation and incubated overnight in T-cell medium (TCM) for human in vitro priming as in WP03 #4. Ca2+ and Mg2+ free PBS (Cambrex) washed HLA-A*02+ PBMCs were labeled at 1×10^7 cells/ml with 1 μM CFSE (Fluka, Buchs, Germany) at 37° C. for 4 minutes. Labeling was stopped by adding the same volume heat inactivated FCS (Invitrogen) and labeled cells were washed in TCM. Irradiation of target or feeder cells, if indicated, was performed at 33 Gy using a 1000 Elite gammacell (MDS Nordion, Ottawa, Canada). Stock solutions of sorafenib tosylate and sunitinib malate were prepared in DMSO (Merck, Darmstadt, Germany) and frozen aliquoted at −80° C. Mixed lymphocyte reactions were performed by coculturing 2×10^5 CFSE labeled effector plus 2×10^5 irradiated target cells as indicated per well of 96 well round bottom plates in 200 μl TCM in the presence of indicated concentrations of sorafenib, sunitinib or DMSO at 37° C. and 5% CO2 (day 1). On day 4, 100 μl supernatant was removed and 100 μl TCM supplemented with the original concentration of TKIs was added. […] Cells were washed, fixed in PFEA containing 1% formaldehyde (Fluka) and analyzed on a FACSCalibur (BD). […]

[3] = HPLC quantification of TKI plasma levels in mouse models; type: in vivo; conditions: oral dosing
Protocol: The proteins were precipitated with 40 μl 100% acetonitril (Acros, Geel, Belgium), centrifuged and filtered through a 0.2 μm PVDF filter. 10 μl was directly injected to the HPLC system.
The HPLC system consisted of a Binary HPLC pump (Shimadzu LC10aVP), a Shimadzu SIL-10aVP autosampler, a Shimadzu CTO-10asVP column oven and a Shimadzu SPD10aVP detector. Data acquisition and analysis was performed using the Shimadzu Class-VP 7.3 software. Chromatographic separation was carried out on a reverse phase C18 column (Reprosil Pur ODS-3μ, 60×2 mm). To protect the analytical column a guard column has been used (Reprosil Pur ODS-5μ, 10×2 mm). Eluent A consisted of water (LCMS grade, Acros, Geel, Belgium), modified by 0.1% formic acid (Merck, Darmstadt, Germany) and eluent B was 80% acetonitril (Acros, Geel, Belgium) with 0.1% formic acid (Merck, Darmstadt, Germany).
The following gradient was used: 5 min 25% eluent B, 15 min 62.5% eluent B, 6 min 80% eluent B and 5 min 80% eluent B. The temperature of the autosampler was kept at 4° C. The temperature of the column was maintained at 30° C. The detection wavelength was set at 400 nm, the injection volume was 10 μl. The column was equilibrated with the mobile phase at a flow rate 0.5 ml/min.
For Sorafenib analysis, 10 μl of 50% acetonitril (Acros, Geel, Belgium) was added to 50 serum or medium in 0.5 ml PCR tubes and mixed for 10 seconds. […]

A498 tumor cells = conditions: A498, 24 h; 13 μM sorafenib or 250 nM sunitinib; normal medium control = 100%
[4] = Protocol: Female C57BL/6 mice (20-25 g, Harlan Winkelmann GmbH, Borchen, Germany) were used for all experiments described in this section. Animals were kept in the animal facility of the Dept. of Immunology at the University of Tuebingen. Animals were cared for by trained animal keepers and health status of animals was supervised by the veterinaries of the University of Tübingen. Feeding with drug was also performed in part by the local animal keepers after special training. All animals were supplied with water and food ad libitum. The described experiments were performed according to procedure no. IM1/06 approved by the Regierungsprasidium Tuebingen.
A liquid, viscous vehicle composed of 30% (w/v) Cremophor EL (Sigma, Deisenhofen, Germany), 30% (w/v) PEG 400 (Sigma, Deisenhofen, Germany), 10% ethanol p.a., 10% glucose was used. Sunitinib and sorafenib were suspended in vehicle according to the planned dosages in a way that […] body weight had to be applied to all mice, according to approx. 50 μl of suspension. Feasible aliquots were prepared from suspensions and from vehicle and stored until use at −20° C. in the dark. Thawed substance was stored at 4° C. and used within the next three days. Animals were weighed before start of treatment and thereafter weekly. The deduced dosage was applied daily using a 1 ml syringe with gavage into the backward cavity of the mouth of the animal without anesthesia. Drug delivery into blood plasma was controlled as described in example 1.
1) Immunization under continuous treatment with tyrosine kinase inhibitors. Pretreatment phase was two weeks (see FIG. 5A). […]
3) The experimental design was identical to a) Beside negative and positive control groups, groups treated with 60 mg/kg body weight sorafenib, and 20 and 40 mg/kg body weight sunitinib were included (6 mice per group). For spleen cells, CD4, Tregs, CD8 cells, and B cells were assessed, for PBMCs CD4, CD8, B cells and Tregs were analyzed.

Question: Which results are given for `CCN(CC)CCNC(=O)c1c(C)[nH]c(/C=C2\C(=O)Nc3ccc(F)cc32)c1C` [Sunitinib]?
Answer: Drug-related toxicity for cells in mixed lymphocyte reactions (summary) (C57BL/6 T cells): no drug-related toxicity was observed; OVA-001 specific CD8+ T-cells, mean ([1]; 20 mg/kg bw, n=12): 3.47%; OVA-001 specific CD8+ T-cells, mean ([1]; 40 mg/kg bw, n=6): 2.73%; OVA-001 specific CD8+ T-cells, mean ([1]; 80 mg/kg bw, n=2): 0.51%; Proliferation of CD8+ and CD4+ effector cells [2]: No effect; Bioavailability / plasma levels at the used doses [3]: confirmed to reach plasma levels shown by others to be effective in tumor growth inhibition; % Expression relative to control: ADFP (A498 tumor cells): 87%; % Expression relative to control: APOL1 (A498 tumor cells): 62%; % Expression relative to control: CCND1 (A498 tumor cells): 93%; % Expression relative to control: GUCY1A3 (A498 tumor cells): 57%; % Expression relative to control: HLA-A (A498 tumor cells): 93%; % Expression relative to control: HLA-B (A498 tumor cells): 76%; % Expression relative to control: HLA-C (A498 tumor cells): 87%; % Expression relative to control: MET (A498 tumor cells): 41%; % Expression relative to control: MMP7 (A498 tumor cells): 31%; % Expression relative to control: MUC1 (A498 tumor cells): 54%; % Expression relative to control: PSMB8 (A498 tumor cells): 87%; % Expression relative to control: PSMB9 (A498 tumor cells): 132%; % Expression relative to control: TAP1 (A498 tumor cells): 123%; Deaths ([4]; 80 mg/kg sunitinib, experiment one): 2 out of 6; Inflamed lesions of injections sites ([4]; mouse, in vivo): frequently observed
